This is an account of results in patent publication US4428957A, “6-Isothiocyano-5-methoxy-2-tert.-butylbenzthiazole and a method of controlling ruminant liver flukes therewith” (Ciba-Geigy Corporation, priority 1978, dated 1984).

Usually MTD stands for the largest dose that counted as tolerated.

For one series, the system named is Fasciola hepatica. Put plainly: Test on sheep infested with Fasciola hepatica. Conditions: for minimal effective dose: Fasciola hepatica. The format is in vivo, Fasciola hepatica (host: sheep). The text has this:
The active substance is introduced in the form of a suspension, by means of a stomach probe or by injection, into the rumen of sheep which have been artificially infested with Fasciola hepatica. Three animals are used per test and per dose, each animal being treated with just one single dose. An initial evaluation is made by comparing the numbers of worm eggs excreted in the droppings of the sheep before and after the treatment. The sheep are killed and dissected three to four weeks after the treatment. The second evaluation is on the basis of a count of the liver flukes which have remained behind in the hepatic ducts after the treatment. Simultaneously and similarly infested but untreated sheep are used as a control or comparison. The difference in the numbers of liver flukes in the two groups is a measure of the degree of effectiveness of the active substance tested.
(§1) The active substances are introduced in the form of a suspension, by means of a stomach probe or by injection, into the rumen of the experimental animals. Three to five sheep are used per test and per dose, each animal being treated with just one single dose. The sheep are kept under observation during 14 days after the treatment, and they are weighed at regular intervals. Any clinical symptoms and cases of death occurring are recorded during this period. Similar sheep (with regard to breed, age and weight) which have not been treated with the respective active substance are kept as control animals together with the treated experimental animals. The same parameters are recorded in the case of the control sheep as in the case of the treated sheep. The minimum effective dose (MED) of 25 mg/kg (see Table) in the case of the compound of formula I is effective in sheep not only against Fasciola hepatica but also against nematodes such as Haemonchus concortus, Trichostrongylus colubriformis and Ostertagia circumcincta, and against cestodes such as Moniezia benedeni.

Series [1] can be described thus: Compatibility in the case of the sheep. To be noted: in vivo; for MTD at 336 h: single dose into the rumen, 14 days observation, read-out: MTD (maximum tolerated dose). Here is the method: as §1
A further series has as its system Nipprostrongylus species. As to the kind of experiment: gastro-intestinal helminths: tests with various Nipprostrongylus species. The format is in vivo. To be noted: compound and its non-toxic salts.
The subject of another series is Schistosoma japonicum. Put plainly: schistosomiasis: Schistosoma japonicum in dogs. Format: in vivo, Schistosoma japonicum (host: dogs).
A further series has as its system Brugia pahangi. Put plainly: filariasis: Brugia pahangi in multimammate rats. Format: in vivo, Brugia pahangi (host: multimammate rats).
For series [2], the system named is Trichostrongylus colubriformis. As to the kind of experiment: Test on sheep infected with nematodes: Trichostrongylus colubriformis. The format is in vivo, Trichostrongylus colubriformis (host: sheep). To be noted: read-out: minimum effective dose (MED), effective also against Trichostrongylus colubriformis. The text has this: (§2) The active substance is introduced in the form of a suspension by means of a stomach probe, or by injection, into the rumen of sheep which have been artificially infested with nematodes such as Haemonchus controtus and Trichostrongylus colubriformis. Three animals are used per test and per dose, each sheep being treated with just one single dose. An initial evaluation is made by comparing the numbers of worm eggs excreted in the dropping of the sheep before and after the treatment. Seven to ten days after the treatment, the sheep are killed and dissected. A second evaluation is then made by carrying out a count of the worm which have remained behind in the intestine after the treatment. Sheep which have been simultaneously and similarly infested but not treated with the active substance are used as a control or comparison.

Another series concerns Litomosoides carinii. Put plainly: filariasis: Litomosoides carinii in Mongolian jirds and multimammate rats. The format is in vivo.
Another series has as its system Ostertagia circumcincta. Put plainly: Test on sheep infected with nematodes: Ostertagia circumcincta. Format: in vivo, Ostertagia circumcincta (host: sheep). To be noted: Teladorsagia circumcincta, read-out: minimum effective dose (MED), effective also against Ostertagia circumcincta.
Excerpt: as §2

Another series deals with Haemonchus contortus. As to the kind of experiment: Test on sheep infected with nematodes: Haemonchus contortus. Format: in vivo, Haemonchus contortus (host: sheep). To be noted: read-out: minimum effective dose (MED), effective also against Haemonchus concortus.
Excerpt: as §2

In a further series the test system is Brugia malayi. As to the kind of experiment: filariasis: Brugia malayi in multimammate rats. Format: in vivo, Brugia malayi (host: multimammate rats).
Another series relates to Schistosoma mansoni. Put plainly: schistosomiasis: Schistosoma mansoni in mice and Syrian hamsters. Format: in vivo, Schistosoma mansoni (host: mice and Syrian hamsters).
The test system of the next series is Moniezia benedeni. As to the kind of experiment: Test on sheep infested with cestodes: Moniezia benedeni. Conditions: read-out: minimum effective dose (MED), effective also against Moniezia benedeni. The format is in vivo, Moniezia benedeni (host: sheep). The text has this:
The active substance is introduced in the form of a suspension, by means of a stomach probe or by injection, into the rumen of sheep which are infested with cestodes such as Moniezia benedeni. Three animals are used per test and per dose, each sheep being treated with just one single dose. The sheep are killed and dissected seven to ten days after the treatment. The evaluation is made on the basis of a count of the worms which have remained behind in the intestine after the treatment. Sheep which have been simultaneously and similarly infested but not treated with the active substance are used as a control or comparison.

The next series has as its system Dipetalonea viteae. Put plainly: filariasis: Dipetalonea viteae in Mongolian jirds and multimammate rats. The format is in vivo.
Series [3] has as its system parasitic helminths, especially Nematodes and Trematodes. As to the kind of experiment: anthelmintic activity against parasitic helminths, various test models. The format is in vivo.
Setting [4] is: read-out: MED (minimum effective dose).

Read-outs that look alike come from different tables or passages of the source. A value given as a limit tells only on which side of the number the result lay.

With `COc1cc2nc(C(C)C)sc2cc1N=C=S` [No. 3, reference compound], the minimal effective dose with Fasciola hepatica (setting [4]) is over 100 mg/kg. In addition, the MTD at 336 h in series [1] turned out to be 200 mg/kg.

`CC(C)c1nc2ccc(N=C=S)cc2s1` [No. 4, reference compound]: in the series with Fasciola hepatica (setting [4]), the minimal effective dose is over 200 mg/kg. Further, the MTD at 336 h in series [1] came out at 200 mg/kg.

As to `COc1cc2nc(C(C)(C)C)sc2cc1N=C=S` [compound of the formula I, 6-isothiocyano-5-methoxy-2-tert.-butyl-benzothiazole], the “properties against gastro-intestinal helminths” value in the series on Nipprostrongylus species is given as “surprising properties against gastro-intestinal helminths”. Besides, the antischistosomal effects result with Schistosoma japonicum and in the series with Schistosoma mansoni was “pronounced antischistosomal effects” throughout. Besides, the “potency against filariasis, micro- and macrofilariae” value in the series with Brugia pahangi, in the series on Litomosoides carinii, in the series with Brugia malayi and with Dipetalonea viteae was “pronounced potency” in each case. In addition, the minimal effective dose in series [2] was 25 mg/kg; in the series on Ostertagia circumcincta, 25 mg/kg; in the series on Haemonchus contortus, 25 mg/kg; in the series on Moniezia benedeni, 25 mg/kg; in the series with Fasciola hepatica (setting [4]), 25 mg/kg; in the series with Fasciola hepatica (sheep, read-out: minimum effective dose (MED)), 25 mg/kg. The “action against liver flukes in sheep” value in the series on Fasciola hepatica (sheep) is reported as “excellent action against liver flukes in sheep”. Further, in series [1] (liver flukes, read-out: therapeutic index (maximum tolerated dose/minimum effective dose)), the selectivity ratio was about 13. Besides, in series [1], the MTD at 336 h worked out at 320 mg/kg. Also, the anthelmintic properties result in [3] (general) is on record as “generally good anthelmintic properties”. The “activity against filariasis, schistosomiasis and gastro-intestinal helminths” value in series [3] (various test models) is “excellent activity”. For the same compound, the “anthelminthic activities against a broad variety of parasitic helminths” value in [3] (warm-blooded organisms, compound and non-toxic salts) is recorded as “extremely potent anthelminthic activities”.

Regarding `CC(C)(C)c1nc2ccc(N=C=S)cc2s1` [No. 2, reference compound], the minimal effective dose with Fasciola hepatica (setting [4]) amounted to 100 mg/kg. For the same compound, the MTD at 336 h in series [1] worked out at 200 mg/kg.
